According to patent publication US9586951B2 (FUJIFILM Corporation, priority 2013, dated 2017):

biological target: T1, ATM (Homo sapiens, UniProt Q13315); experiment: ATM inhibition test (phosphorylation of Chk2 generated by ionizing radiation, AlphaScreen SureFire); type: cell-based; details: ATM inhibitory activity, phosphorylated Chk2 in NCI-H460 cells, ionizing radiation 8Gy, 1 hour after test compound treatment
T1 construct: detecting phosphorylation of Chk2 in a human non-small cell lung cancer cell line NCI-H460 (ATCC company); host or cells: NCI-H460 human non-small cell lung cancer cells
T1 sequence (Q13315 whole entry): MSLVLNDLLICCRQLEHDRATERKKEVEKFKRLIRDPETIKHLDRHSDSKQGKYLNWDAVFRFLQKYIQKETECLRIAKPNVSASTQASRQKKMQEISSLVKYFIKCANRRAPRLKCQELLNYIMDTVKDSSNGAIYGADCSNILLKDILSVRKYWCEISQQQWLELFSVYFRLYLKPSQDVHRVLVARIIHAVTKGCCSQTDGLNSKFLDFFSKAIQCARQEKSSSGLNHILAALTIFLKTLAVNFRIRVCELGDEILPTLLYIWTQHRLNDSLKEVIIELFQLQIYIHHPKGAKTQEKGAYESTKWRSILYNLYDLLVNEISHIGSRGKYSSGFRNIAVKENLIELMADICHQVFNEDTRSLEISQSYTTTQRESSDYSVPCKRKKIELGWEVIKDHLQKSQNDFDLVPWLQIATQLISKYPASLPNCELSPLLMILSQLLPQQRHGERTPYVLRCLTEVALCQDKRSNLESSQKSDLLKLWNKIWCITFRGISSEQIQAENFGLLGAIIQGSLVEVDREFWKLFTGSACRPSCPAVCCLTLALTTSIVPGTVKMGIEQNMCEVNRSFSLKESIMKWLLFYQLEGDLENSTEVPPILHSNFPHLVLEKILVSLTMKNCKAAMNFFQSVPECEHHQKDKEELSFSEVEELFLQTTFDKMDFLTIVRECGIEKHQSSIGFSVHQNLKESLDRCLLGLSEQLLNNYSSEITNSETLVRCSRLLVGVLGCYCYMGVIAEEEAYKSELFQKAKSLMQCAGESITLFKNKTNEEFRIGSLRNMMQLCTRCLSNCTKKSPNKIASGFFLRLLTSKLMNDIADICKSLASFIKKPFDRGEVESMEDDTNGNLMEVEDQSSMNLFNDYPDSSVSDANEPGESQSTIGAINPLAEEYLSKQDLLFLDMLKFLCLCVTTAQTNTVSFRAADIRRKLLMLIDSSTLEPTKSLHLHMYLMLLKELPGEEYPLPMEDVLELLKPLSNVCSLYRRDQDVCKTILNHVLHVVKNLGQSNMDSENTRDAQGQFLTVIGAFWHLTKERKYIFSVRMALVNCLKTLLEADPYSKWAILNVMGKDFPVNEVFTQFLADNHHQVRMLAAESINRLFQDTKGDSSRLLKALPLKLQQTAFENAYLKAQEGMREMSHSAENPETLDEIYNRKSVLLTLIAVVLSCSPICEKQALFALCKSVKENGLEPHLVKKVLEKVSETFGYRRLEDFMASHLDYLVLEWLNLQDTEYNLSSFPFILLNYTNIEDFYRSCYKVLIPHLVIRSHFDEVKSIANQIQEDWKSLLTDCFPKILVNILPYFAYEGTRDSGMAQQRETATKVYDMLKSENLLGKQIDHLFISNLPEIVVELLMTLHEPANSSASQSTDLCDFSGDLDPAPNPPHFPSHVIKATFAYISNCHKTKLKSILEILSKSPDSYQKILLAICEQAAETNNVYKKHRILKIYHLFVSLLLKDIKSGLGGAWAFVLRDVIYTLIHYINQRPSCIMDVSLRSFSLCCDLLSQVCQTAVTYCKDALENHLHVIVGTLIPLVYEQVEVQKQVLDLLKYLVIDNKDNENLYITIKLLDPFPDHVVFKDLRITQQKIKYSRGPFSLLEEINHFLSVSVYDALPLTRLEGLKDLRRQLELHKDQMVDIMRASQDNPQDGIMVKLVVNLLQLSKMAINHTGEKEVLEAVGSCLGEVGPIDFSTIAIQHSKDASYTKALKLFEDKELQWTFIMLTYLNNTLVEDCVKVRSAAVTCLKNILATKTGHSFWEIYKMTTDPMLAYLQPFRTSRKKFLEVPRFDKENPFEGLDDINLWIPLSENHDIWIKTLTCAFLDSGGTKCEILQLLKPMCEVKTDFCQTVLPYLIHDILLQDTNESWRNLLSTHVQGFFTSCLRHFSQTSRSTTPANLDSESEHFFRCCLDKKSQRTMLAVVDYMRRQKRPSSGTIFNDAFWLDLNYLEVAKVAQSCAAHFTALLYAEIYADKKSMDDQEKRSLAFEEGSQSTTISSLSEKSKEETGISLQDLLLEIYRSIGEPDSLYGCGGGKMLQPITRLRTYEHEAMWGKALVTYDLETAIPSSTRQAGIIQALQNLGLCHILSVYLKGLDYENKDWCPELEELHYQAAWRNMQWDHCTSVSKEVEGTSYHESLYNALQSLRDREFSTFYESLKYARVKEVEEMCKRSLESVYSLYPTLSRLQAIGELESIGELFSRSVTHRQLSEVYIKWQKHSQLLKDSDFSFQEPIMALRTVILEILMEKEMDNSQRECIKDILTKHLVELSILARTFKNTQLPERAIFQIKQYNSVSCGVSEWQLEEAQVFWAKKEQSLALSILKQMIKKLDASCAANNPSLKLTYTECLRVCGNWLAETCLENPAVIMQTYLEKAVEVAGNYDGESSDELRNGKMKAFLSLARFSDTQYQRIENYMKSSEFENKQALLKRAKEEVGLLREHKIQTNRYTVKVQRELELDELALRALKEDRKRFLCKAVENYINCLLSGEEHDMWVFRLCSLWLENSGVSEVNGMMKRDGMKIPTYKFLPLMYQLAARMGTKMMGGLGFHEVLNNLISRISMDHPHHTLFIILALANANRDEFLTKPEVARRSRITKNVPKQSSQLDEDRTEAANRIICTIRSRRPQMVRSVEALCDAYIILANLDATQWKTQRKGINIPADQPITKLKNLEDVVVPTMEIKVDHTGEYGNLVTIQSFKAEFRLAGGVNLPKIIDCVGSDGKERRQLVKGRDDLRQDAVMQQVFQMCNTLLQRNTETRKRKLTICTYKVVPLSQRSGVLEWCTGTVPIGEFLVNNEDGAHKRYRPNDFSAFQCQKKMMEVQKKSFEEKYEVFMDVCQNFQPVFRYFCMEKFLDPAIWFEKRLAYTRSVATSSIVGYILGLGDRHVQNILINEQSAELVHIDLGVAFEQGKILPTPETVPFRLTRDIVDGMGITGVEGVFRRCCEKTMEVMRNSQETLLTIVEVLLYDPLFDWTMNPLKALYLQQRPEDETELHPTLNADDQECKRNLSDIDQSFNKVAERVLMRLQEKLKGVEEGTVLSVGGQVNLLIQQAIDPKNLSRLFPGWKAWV
In short: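 NCI-H460 cells treated with compound for 1 hour, then irradiated with 8Gy and incubated 1 hour at 37° C. Phospho-Chk2 measured by AlphaScreen SureFire. Inhibition ratio calculated relative to untreated irradiated and non-irradiated wells.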

Row | SMILES | IC50 [nM]
1 | O=c1cc(N2CCOCC2)cc(-c2cccc3c2Sc2ccc(N4CC4CF)cc2S3)[nH]1 (centres unmarked) [Example 1-40, 6-(7-(2-(fluoromethyl)aziridin-1-yl)thianthren-1-yl)-4-morpholinopyridin-2(1H)-one] | 100 to 500

same assay, conditions: phosphorylated Chk2 in NCI-H460 cells, ionizing radiation 8Gy, 1 hour after test compound treatment; read-out: ATM inhibitory activity

Row | SMILES | IC50 [nM]
2 | COc1cncc(CNc2ccc3c(c2)Cc2ccnc(-c4cc(N5CCOCC5)cc(=O)[nH]4)c2O3)c1 [Example 2-41-1, 6-(7-(((5-Methoxypyridin-3-yl)methyl)amino)-5H-chromeno[2,3-c]pyridin-1-yl)-4-morpholinopyridin-2(1H)-one] | 100 to 500
3 | O=c1cc(N2CCOCC2)cc(-c2cccc3c2Sc2ccc(NCc4ccno4)cc2C3)[nH]1 [Example 3-6, 6-(7-((isoxazol-5-ylmethyl)amino)-9H-thioxanthen-4-yl)-4-morpholinopyridin-2(1H)-one] | 500 to 2000
4 | CC(Nc1ccc2c(c1)Cc1ccnc(-c3cc(N4CCOCC4)cc(=O)[nH]3)c1O2)c1cccc(F)n1 (centres unmarked) [Example 2-41-13, 6-(7-((1-(6-Fluoropyridin-2-yl)ethyl)amino)-5H-chromeno[2,3-c]pyridin-1-yl]-4-morpholino pyridin-2(1H)-one] | 100 to 500
5 | O=c1cc(N2CCOCC2)cc(-c2cccc3c2Oc2ccc(NCc4ccsc4)cc2C3)[nH]1 [Example 2-14-35, 4-Morpholino-6-(7-((thiophen-3-ylmethyl)amino)-9H-xanthen-4-yl) pyridin-2(1H)-one] | 100 to 500
6 | CC(Nc1ccc2c(c1)Sc1cccc(-c3cc(N4CCOCC4)cc(=O)[nH]3)c1S2)c1ncc(CO)cn1 (centres unmarked) [Example 1-12-92, 6-(7-((1-(5-(Hydroxymethyl)pyrimidin-2-yl)ethyl)amino)thianthren-1-yl)-4-morpholino pyridin-2(1H)-one] | 100 to 500
7 | O=c1cc(N2CCOCC2)cc(-c2cccc3c2Oc2ccc(NCc4cncc(C5=CCCC5)c4)cc2C3)[nH]1 [Example 2-2-61, 6-(7-(((5-(Cyclopent-1-en-1-yl)pyridin-3-yl)methyl)amino)-9H-xanthen-4-yl)-4-morpholino pyridin-2(1H)-one] | 100 to 500
8 | Cc1cccc(C(Nc2ccc3c(c2)Sc2cccc(-c4cc(N5CCOCC5)cc(=O)[nH]4)c2S3)C2CCCNC2)n1 (centres unmarked) [Example 1-20-13, 6-(7-(((6-Methylpyridin-2-yl)(piperidin-3-yl)methyl)amino)thianthren-1-yl)-4-morpholino pyridin-2(1H)-one] | 500 to 2000
9 | COc1ccc(CNc2ccc3c(c2)Cc2cc(C)cc(-c4cc(N5CCOCC5)cc(=O)[nH]4)c2O3)cn1 [Example 2-49-1, 6-(7-(((6-Methoxypyridin-3-yl)methyl)amino)-2-methyl-9H-xanthen-4-yl)-4-morpholinopyridin-2(1H)-one] | 500 to 2000
10 | O=c1cc(N2CCOCC2)cc(-c2cccc3c2Oc2ccc(NC4CCN(CCc5ccccc5)CC4)cc2C3)[nH]1 [Example 2-28-29, 4-Morpholino-6-(7-((1-phenethylpiperidin-4-yl)amino)-9H-xanthen-4-yl) pyridin-2(1H)-one] | 100 to 500
11 | COc1ccc(CCN2CCC(Nc3ccc4c(c3)Cc3ccc(F)c(-c5cc(N6CCOCC6)cc(=O)[nH]5)c3O4)CC2)cc1 [Example 2-47, 6-(3-Fluoro-7-((1-(4-methoxyphenethyl)piperidin-4-yl)amino)-9H-xanthen-4-yl)-4-morpholinopyridin-2(1H)-one] | 100 to 500
12 | Cc1ccc(CNc2ccc3c(c2)Cc2ccnc(-c4cc(N5CCOCC5)cc(=O)[nH]4)c2O3)nc1 [Example 2-42-2, 6-(7-(((5-Methylpyridin-2-yl)methyl)amino)-5H-chromeno[2,3-c]pyridin-1-yl)-4-morpholinopyridin-2(1H)-one] | 100 to 500
13 | O=c1cc(N2CCOCC2)cc(-c2cccc3c2Sc2ccc(NC(CN4CCCCC4)CN4CCOCC4)cc2S3)[nH]1 (centres unmarked) [Example 1-39, 4-morpholino-6-(7-((1-morpholino-3-(piperidin-1-yl)propan-2-yl)amino)thianthren-1-yl)pyridin-2(1H)-one] | 100 to 500
14 | O=c1cc(N2CCOCC2)cc(-c2cccc3c2Sc2ccc(NC4CCCC4N4CCOCC4)cc2S3)[nH]1 (single isomer, unassigned) [Example 1-16-1-3, 4-morpholino-6-(7-((2-morpholinocyclopentyl)amino)thianthren-1-yl)pyridin-2(1H)-one] | 100 to 500
15 | Cc1nccc(C(C)Nc2ccc3c(c2)Cc2cccc(-c4cc(N5CCOCC5)cc(=O)[nH]4)c2O3)n1 (centres unmarked) [Example 2-14-48, 6-(7-((1-(2-Methylpyrimidin-4-yl)ethyl)amino)-9H-xanthen-4-yl)-4-morpholino pyridin-2 (1H)-one] | 100 to 500
16 | COCc1cncc(CNc2ccc3c(c2)Cc2cccc(-c4cc(N5CCOCC5)cc(=O)[nH]4)c2O3)c1 [Example 2-2-33, 6-(7-(((5-(Methoxymethyl)pyridin-3-yl)methyl)amino)-9H-xanthen-4-yl)-4-morpholino pyridin-2(1H)-one] | 100 to 500
17 | CC(CN1CCN(Cc2ccccc2)CC1)Nc1ccc2c(c1)Sc1cccc(-c3cc(N4CCOCC4)cc(=O)[nH]3)c1S2 (centres unmarked) [Example 1-15-1, 6-(7-((1-(4-Benzylpiperazin-1-yl)propan-2-yl)amino)thianthren-1-yl)-4-morpholinopyridin-2(1H)-one] | 100 to 500

Row | SMILES | IC50 [nM]
18 | O=c1cc(N2CCOCC2)cc(-c2cccc3c2Sc2ccc(NC4CCN(C5CCOCC5)C4)cc2S3)[nH]1 (centres unmarked) [Example 1-24-13, 4-Morpholino-6-(7-((1-(tetrahydro-2H-pyran-4-yl)pyrrolidin-3-yl)amino)thianthren-1-yl)pyridin-2 (1H)-one] | 100 to 500
19 | Cc1cncc(C(C)Nc2ccc3c(c2)Cc2cccc(-c4cc(N5CCOCC5)cc(=O)[nH]4)c2O3)c1 (single isomer, unassigned) [Example 2-14-88-1, 6-(7-((1-(5-methylpyridin-3-yl)ethyl)amino)-9H-xanthen-4-yl)-4-morpholinopyridin-2(1H)-one] | 100 to 500
20 | O=C(CN1C2CCC1COC2)Nc1ccc2c(c1)Sc1cccc(-c3cc(N4CCOCC4)cc(=O)[nH]3)c1S2 [Example 1-7-2, 2-(3-Oxa-8-azabicyclo[3.2.1]octan-8-yl)-N-(6-(4-morpholino-6-oxo-1,6-dihydropyridin-2-yl)thianthren-2-yl)acetamide] | 100 to 500
21 | O=c1cc(N2CCOCC2)cc(-c2cccc3c2Oc2ccc(NC4CCN(CCc5ccc(CO)cc5)CC4)cc2C3)[nH]1 [Example 2-30-17, 6-(7-((1-(4-(Hydroxymethyl)phenethyl)piperidin-4-yl)amino)-9H-xanthen-4-yl)-4-morpholino pyridin-2 (1H)-one] | 100 to 500
22 | O=c1cc(N2CCOCC2)cc(-c2cccc3c2Oc2ccc(NC4CCN(CCc5ccccc5Cl)CC4)cc2C3)[nH]1 [Example 2-30-9, 6-(7-((1-(2-Chlorophenethyl)piperidin-4-yl)amino)-9H-xanthen-4-yl)-4-morpholino pyridin-2(1H)-one] | 100 to 500
23 | CC(CNC1CCCCC1)Nc1ccc2c(c1)Sc1cccc(-c3cc(N4CCOCC4)cc(=O)[nH]3)c1S2 (centres unmarked) [Example 1-13-7, 6-(7-((1-(Cyclohexylamino)propan-2-yl)amino)thianthren-1-yl)-4-morpholino pyridin-2(1H)-one] | 100 to 500
24 | CCOC(=O)CNc1ccc2c(c1)Sc1cccc(-c3cc(N4CCOCC4)cc(=O)[nH]3)c1S2 [Example 1-12-49, Ethyl 2-((6-(4-morpholino-6-oxo-1,6-dihydropyridin-2-yl)thianthren-2-yl)amino) acetate] | < 100
25 | COC[C@H](CN(C(C)C)C(C)C)Nc1ccc2c(c1)Sc1cccc(-c3cc(N4CCOCC4)cc(=O)[nH]3)c1S2 [Example 1-46-14, (S)-6-(7-((1-(Diisopropylamino)-3-methoxypropan-2-yl)amino)thianthren-1-yl)-4-morpholino pyridin-2(1H)-one] | 100 to 500
26 | CN(C)C(=O)Nc1ncc(CNc2ccc3c(c2)Sc2cccc(-c4cc(N5CCOCC5)cc(=O)[nH]4)c2S3)cn1 [Example 1-12-47] | 100 to 500
27 | Cc1cnc(C(CF)Nc2ccc3c(c2)Cc2cccc(-c4cc(N5CCOCC5)cc(=O)[nH]4)c2O3)nc1 (centres unmarked) [Example 2-14-83, 6-(7-((2-Fluoro-1-(5-methylpyrimidin-2-yl)ethyl)amino)-9H-xanthen-4-yl)-4-morpholino pyridin-2(1H)-one] | 100 to 500
28 | COCCN1CCOC(C(Nc2ccc3c(c2)Sc2cccc(-c4cc(N5CCOCC5)cc(=O)[nH]4)c2S3)c2ccc(C)cn2)C1 (single isomer, unassigned) [Example 1-56-8, 6-(7-(((4-(2-Methoxyethyl)morpholin-2-yl)(5-methylpyridin-2-yl)methyl)amino)thianthren-1-yl)-4-morpholino pyridin-2(1H)-one] | < 100
29 | COc1cccc(C(C)Nc2ccc3c(c2)Cc2cccc(-c4cc(N5CCOCC5)cc(=O)[nH]4)c2O3)n1 (centres unmarked) [Example 2-14-30, 6-(7-((1-(6-Methoxypyridin-2-yl)ethyl)amino)-9H-xanthen-4-yl)-4-morpholine pyridin-2(1H)-one] | 100 to 500
30 | Cc1ccc(C(Nc2ccc3c(c2)Sc2cccc(-c4cc(N5CCOCC5)cc(=O)[nH]4)c2S3)[C@H]2CCN(C)C2)nc1 (single isomer, unassigned) [Example 1-56-15] | < 100
31 | CNCC(Nc1ccc2c(c1)Sc1cccc(-c3cc(N4CCOCC4)cc(=O)[nH]3)c1S2)c1cccc(C)n1 (single isomer, unassigned) [Example 1-19-4-2, 6-(7-((2-(Methylamino)-1-(6-methylpyridin-2-yl)ethyl)amino)thianthren-1-yl)-4-morpholinopyridin-2(1H)-one] | 500 to 2000
32 | COc1ncc(CNc2ccc3c(c2)Sc2cccc(-c4cc(N5CCOCC5)cc(=O)[nH]4)c2S3)cn1 [Example 1-12-10, 6-(7-(((2-Methoxypyrimidin-5-yl)methyl)amino)thianthren-1-yl)-4-morpholino pyridin-2(1H)-one] | 100 to 500
